Measurements published in patent publication US9814714B2, “Kinase modulation, and indications therefor” (Plexxikon Inc., priority 2015, dated 2017).

Assays:
[1] = test system: pERK in A431 cells (over-expression of EGFR); test: pERK levels in A431; format: cell-based; settings: human SCC cell line
Procedure: (§1) The compound of Formula II was also evaluated in the human SCC cell line A431 and the human breast adenocarcinoma cell line SKBR3 as these cells achieve MAPK pathway activation by upstream signals feeding into RAS (through over-expression of EGFR and HER2, respectively).
(§2) Phospho-ERK AlphaScreen® assay: The degree of ERK phosphorylation was determined using an AlphaScreen® assay where an increase in ERK1/2 phosphorylation at Thr202/Tyr204 brought the donor and acceptor AlphaScreen® beads into close proximity, generating a signal for quantification. To determine the effects of compound treatment on phosphorylation of ERK1/2, cells were plated in a 96-well plate and treated with an 8-point titration of compound for one hour at 37° C. before lysis. To detect pERK, cell lysates were incubated with streptavidin-coated AlphaScreen® donor beads, anti-mouse IgG AlphaScreen® acceptor beads, a biotinylated anti-ERK1/2 rabbit antibody, and a mouse antibody that recognizes ERK1/2 only when it is phosphorylated on Thr202 and Tyr204. […] An increase in ERK1/2 phosphorylation at Thr202/Tyr204 brings the donor and acceptor AlphaScreen® beads into close proximity, generating a signal that can be quantified on an EnVision reader (Perkin Elmer).
(§3) Phospho-ERK immunoblot analysis: Western blots were performed by standard techniques and analyzed on an Odyssey Infrared Scanner (Li-COR Biosciences). […]

[2] = test system: pERK in SKBR3 cells (over-expression of HER2); test: pERK levels in SKBR3; format: cell-based; settings: human breast adenocarcinoma cell line
Procedure: as §1, §2, §3

BRAF_V600A = BRAF_V600A (Homo sapiens, UniProt P15056, V600A); test: RAF kinase biochemical assay, BRAF V600A; settings: Table 3; ATP 100 μM
Sequence of BRAF_V600A (P15056 432-726 V600A): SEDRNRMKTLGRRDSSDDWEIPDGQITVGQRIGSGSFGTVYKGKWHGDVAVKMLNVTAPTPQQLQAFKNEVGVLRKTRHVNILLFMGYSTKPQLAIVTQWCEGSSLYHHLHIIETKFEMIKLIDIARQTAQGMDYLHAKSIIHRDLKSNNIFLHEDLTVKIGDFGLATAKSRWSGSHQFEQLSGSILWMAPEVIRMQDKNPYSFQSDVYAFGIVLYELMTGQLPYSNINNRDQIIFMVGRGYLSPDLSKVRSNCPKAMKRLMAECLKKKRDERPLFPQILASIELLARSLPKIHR
Procedure: (§4) BRAF proteins were produced in insect cells at Plexxikon Inc. as N-terminally His-tagged fragments encompassing the kinase domain.
(§5) 1) Test compounds in DMSO were serially diluted and plated into 384-well assay plates at 1 μL/well.
(§6) 2) Added were 15 μL/well of RAF enzyme and biotinylated-MEK1 substrate in kinase buffer.
(§7) 3) Added were 4 μL of ATP (500 μM) in kinase buffer.
(§8) 5) After a brief spin down, the plate was incubated at about room temperature for 40-50 minutes. 6) Added was 5 μL of Stop buffer at final EDTA 20 mM; anti-phospho-MEK1 1:2,500; donor/acceptor beads 3 μg/mL. 7) After brief spin down, the plate was incubated at room temperature for about 3 hours. 8) The plate was read on the Envision multilabel plate reader (Perkin Elmer). […] 2. Results

BRAF_V600K = BRAF_V600K (Homo sapiens, UniProt P15056, V600K); test: RAF kinase biochemical assay, BRAF V600K; settings: Table 3; ATP 100 μM
Sequence of BRAF_V600K (P15056 448-723 V600K): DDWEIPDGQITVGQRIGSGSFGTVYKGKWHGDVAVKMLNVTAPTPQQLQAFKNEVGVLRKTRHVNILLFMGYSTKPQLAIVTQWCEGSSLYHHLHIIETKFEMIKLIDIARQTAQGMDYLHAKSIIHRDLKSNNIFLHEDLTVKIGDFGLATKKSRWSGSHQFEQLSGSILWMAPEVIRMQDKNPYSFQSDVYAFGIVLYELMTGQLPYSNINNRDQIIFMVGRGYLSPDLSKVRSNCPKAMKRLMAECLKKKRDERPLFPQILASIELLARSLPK
Procedure: as §4, §5, §6, §7, §8

BRAF_V600M = BRAF_V600M (Homo sapiens, UniProt P15056, V600M); test: RAF kinase biochemical assay, BRAF V600M; settings: Table 3; ATP 100 μM
Sequence of BRAF_V600M (P15056 432-726 V600M): as the sequence (P15056 432-726 V600A) above, with A169M counted along it
Procedure: as §4, §5, §6, §7, §8

HT-29 cells = test: Growth assay (CellTiter-Glo), HT-29; format: cell-based; settings: Homo sapiens, HT-29, 72 h; colorectal adenocarcinoma; BRAF V600E/WT, RAS WT; 3 days
Text: (§9) In order to determine the effects of Formula I on proliferation, a growth assay was established using melanoma cells (A375 and COLO829) and colorectal carcinoma cells (COLO205, HT-29) which each express the BRAFV600E mutation. To show selectivity over wild-type BRAF, several BRAF wild-type cell lines (K562, NOMO-1, MV-4-11 and ML-2) were also examined in the growth assay. The growth assay implemented the Promega CellTiter-Glo Luminescent Cell viability assay, which gives a luminescent readout that is proportional to the amount of ATP present in a cell sample. As ATP levels directly correlate with the number of viable cells, the luminescent signal can be used to determine the potency of Formula I to block the proliferation of the cell lines of interest.
(§10) 1. 3,000 cells were plated in each well for cell lines A375, COLO205, COLO829, HT-29, and SK-MEL-3. 25,000 cells were plated in each well for cell lines K562, ML-2, MV-4-11, and
(§11) NOMO-1 of a 96-well tissue-culture-treated plate (Corning #3610) in a 50 μL volume. Cells were incubated overnight at 37° C.
(§12) 2. Each test compound was plated as an 8-point titration, using 1:3 dilutions in DMSO. The maximum concentration was about 5 mM. Dilute DMSO and test compound of Formula I 1:250 in growth media.
3. […]
(§13) 4. […] Luminescence was measured on a Tecan Safire plate reader. […]

K562 cells = test: Growth assay (CellTiter-Glo), K562; format: cell-based; settings: Homo sapiens, K562, 72 h; chronic myeloid leukemia; BRAF WT, RAS WT; 3 days
Text: as §9, §10, §11, §12
3. […]
as §13

MV-4-11 cells = test: Growth assay (CellTiter-Glo), MV-4-11; format: cell-based; settings: Homo sapiens, MV4-11, 72 h; biphenotypic B myelomonocytic leukemia; BRAF WT, RAS WT; 3 days
Text: as §9, §10, §11, §12
3. […]
as §13

NOMO-1 cells = test: Growth assay (CellTiter-Glo), NOMO-1; format: cell-based; settings: Homo sapiens, NOMO-1, 72 h; acute myeloid leukemia; BRAF WT, KRAS-G13D; 3 days
Text: as §9, §10, §11, §12
3. […]
as §13

[3] = target: NIH/3T3 cells stably expressing KIAA1549-BRAF fusions (Homo sapiens, UniProt P15056); test: BRAF fusion xenograft tumor growth; format: in vivo, balb/c nu/nu mice; settings: all three xenografts (three of the four KIAA1549-BRAF fusions); flank of balb/c nu/nu mice
Sequence of NIH/3T3 cells stably expressing KIAA1549-BRAF fusions (P15056 448-766 limits assumed): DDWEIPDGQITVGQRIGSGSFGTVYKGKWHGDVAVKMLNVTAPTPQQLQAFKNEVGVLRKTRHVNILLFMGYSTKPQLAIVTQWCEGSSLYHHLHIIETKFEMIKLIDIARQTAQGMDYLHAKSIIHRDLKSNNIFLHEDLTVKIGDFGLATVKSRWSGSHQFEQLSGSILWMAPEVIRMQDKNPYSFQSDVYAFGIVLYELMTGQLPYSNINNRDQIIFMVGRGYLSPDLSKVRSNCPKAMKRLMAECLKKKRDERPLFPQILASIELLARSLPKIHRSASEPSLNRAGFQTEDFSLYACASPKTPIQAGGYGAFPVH
Procedure: NIH/3T3 (ATCC® CRL-1658™) cells stably expressing KIAA1549-BRAF fusions (Fusion-1, Fusion-2, Fusion-3, and Fusion-4) were injected into the flank of balb/c nu/nu mice. Tumor growth was measured with calipers. Ellipsoid tumor volume was calculated using the following formula: volume=½·length·width^2.

[4] = test system: BRAF-V600E in SK-MEL-239 parental cells; test: ERK/MEK phosphorylation and growth assays, SK-MEL-239 parental; format: cell-based
[5] = test system: BRAF-V600E in vemurafenib-resistant SK-MEL-239 C3 cells

Compound: CCN(C)S(=O)(=O)Nc1ccc(F)c(C(=O)c2c[nH]c3ncc(-c4cnc(C5CC5)nc4)cc23)c1F [Formula II, 5-(2-cyclopropylpyrimidin-5-yl)-3-[3-[[ethyl(methyl)sulfamoyl]amino]-2,6-difluoro-benzoyl]-1H-pyrrolo[2,3-b]pyridine]
- Change of pERK levels in A431 (in words) [1]: did not increase pERK levels
- Change of pERK levels in SKBR3 (in words) [2]: did not increase pERK levels

Compound: O=C(c1c(F)ccc(NS(=O)(=O)N2CC[C@@H](F)C2)c1F)c1c[nH]c2ncc(-c3cnc(C4CC4)nc3)cc12 [Formula I, (3R)—N-[3-[5-(2-cyclopropylpyrimidin-5-yl)-1H-pyrrolo[2,3-b]pyridine-3-carbonyl]-2,4-difluorophenyl]-3-fluoropyrrolidine-1-sulfonamide]
- IC50 (BRAF_V600A): 14.2 nM
- IC50 (BRAF_V600K): 3.9 nM
- IC50 (BRAF_V600M): 9.8 nM
- IC50 (HT-29 cells): 840 nM
- IC50 (K562 cells): > 10000 nM
- IC50 (MV-4-11 cells): > 10000 nM
- IC50 (NOMO-1 cells): > 10000 nM
- Inhibition of xenograft growth (tumor volume) [3]: ≥ 50%
- Inhibition of BRAF-V600E in SK-MEL-239 parental (in words) [4]: potent inhibitor
- Inhibition of BRAF-V600E in vemurafenib-resistant C3 (in words) [5]: potent inhibitor
